Reference: US11472788B2, “Benzoimidazoles as selective inhibitors of indoleamine 2,3-dioxygenases” (BEIGENE, LTD., priority 2017, dated 2022)

molecular target: cellular IDO1 in HeLa cells (Homo sapiens (Human), UniProt P14902); experiment: HeLa Cell-Based IDO1 Kyn (Kynurenine) Production Assay; details: IFN-γ induced IDO1, 48 hours incubation, Kyn absorbance at 480 nm
Experimental: HeLa Cell-Based IDO1 Kyn (Kynurenine) Production Assay:
The inhibitory activity of IDO1 inhibitors is determined by using a colorimetric reaction to measure Kyn generated from L-Trp (L-Tryptophon) oxidation by cellular IDO1 in HeLa cells after induction of IDO1 expression by IFN-γ.
Hela cells were obtained from the American Type Culture Collection and recovered in 10% FBS-containing phenol red-free DMEM medium. Cells were plated onto a 96-well plate (100 μl/well) at 8000 cells per well and kept at 37° C. in a humidified incubator supplied with 5% CO2. 4 hours later, Human recombinant IFN-γ (8901SC, CST) was added to cells (final concentration 100 ng/mL) to stimulate endogenous IDOL. Compounds at different concentrations diluted in dimethylsulfoxide (DMSO) were added simultaneously with IFN-γ and 0.4 mM L-Trp. Cells were kept at 37° C. in a humidified incubator supplied with 5% CO2. After 48 hours of incubation, 100 μl supernatant from each well was removed to a new plate. The protein in the medium was precipitated with the addition of 8 μl 6N trichloroacetic acid. The plate was incubated at 60° C. for 30 minutes and then centrifugation at 2500 rpm for 10 minutes to remove sediments. 80 μl supernatants were carefully removed to a new clean plate and added with an equal volume of 2% 4-(Dimethylamino)benzaldehyde (D2004, sigma) dissolved in glacial acetic acid. The absorbance at 480 nm wavelength derived from Kyn was measured using a PHERAstar FS plate reader (BMG LABTECH). The IC5C for each compound was derived from fitting the dose-response data to the four-parameter logistic model by using XLfit software (IDBS).

Chain of cellular IDO1 in HeLa cells (P14902 whole entry): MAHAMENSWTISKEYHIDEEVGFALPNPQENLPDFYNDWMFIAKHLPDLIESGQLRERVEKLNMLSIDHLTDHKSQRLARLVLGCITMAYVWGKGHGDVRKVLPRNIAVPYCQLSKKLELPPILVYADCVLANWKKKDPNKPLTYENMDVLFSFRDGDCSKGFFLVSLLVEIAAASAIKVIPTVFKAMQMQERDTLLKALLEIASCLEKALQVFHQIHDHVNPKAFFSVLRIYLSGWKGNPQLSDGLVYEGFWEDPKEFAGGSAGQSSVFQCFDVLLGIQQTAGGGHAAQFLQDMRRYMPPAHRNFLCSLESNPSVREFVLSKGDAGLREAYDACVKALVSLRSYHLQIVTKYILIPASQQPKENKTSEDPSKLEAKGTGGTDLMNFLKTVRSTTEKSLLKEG

EC50 [nM] | SMILES
3.1 | C[C@@H](c1nc2ccc(Cl)cc2[nH]1)C1CCC(c2cnc3ccccc3c2)CC1 (stereo partly drawn) [Example B25b, (R)-3-(4-(1-(6-chloro-1H-benzo[d]imidazol-2-yl)ethyl)cyclohexyl)quinoline]
6.79 | C[C@@H](c1nc2c(Cl)c(F)cc(F)c2[nH]1)[C@H]1CC[C@@H](c2ccnc3ccc(F)cc32)CC1 [Example B123, 4-((1S,4s)-4-((R)-1-(4-chloro-5,7-difluoro-1H-benzo[d]imidazol-2-yl)ethyl)cyclohexyl)-6-fluoroquinoline]
16.4 | C[C@@H](c1nc2c(F)c(F)cc(Cl)c2[nH]1)[C@H]1CC[C@@H](c2ccnc3ccc(F)cc32)CC1 [Example B124, 4-((1S,4s)-4-((R)-1-(7-chloro-4,5-difluoro-1H-benzo[d]imidazol-2-yl)ethyl)cyclohexyl)-6-fluoroquinoline]
8.79 | C[C@@H](c1nc2c(Cl)c(F)c(F)cc2[nH]1)[C@H]1CC[C@@H](c2ccnc3ccc(F)cc32)CC1 [Example B125, 4-((1S,4s)-4-((R)-1-(4-chloro-5,6-difluoro-1H-benzo[d]imidazol-2-yl)ethyl)cyclohexyl)-6-fluoroquinoline]
296 | C[C@@H](c1nc2ccc(NS(C)(=O)=O)cc2[nH]1)[C@H]1CC[C@@H](c2ccnc3ccc(F)cc32)CC1 [Example B136, N-(2-((R)-1-((1s,4S)-4-(6-fluoroquinolin-4-yl)cyclohexyl)ethyl)-1H-benzo[d]imidazol-6-yl)methanesulfonamide]
18.8 | C[C@@H](c1nc2ccc(S(C)(=O)=O)cc2[nH]1)[C@H]1CC[C@@H](c2ccnc3ccc(F)cc32)CC1 [Example B138, 6-fluoro-4-((1S,4s)-4-((R)-1-(6-(methylsulfonyl)-1H-benzo[d]imidazol-2-yl)ethyl)cyclohexyl)quinoline]
6.89 | COC(=O)c1cc(C)c2nc([C@H](C)[C@H]3CC[C@@H](c4ccnc5ccc(F)cc54)CC3)[nH]c2c1 [Example B141, methyl 2-((R)-1-((1s,4S)-4-(6-fluoroquinolin-4-yl)cyclohexyl)ethyl)-4-methyl-1H-benzo[d]imidazole-6-carboxylate]
82.3 | CC(c1nc2cc3c(=O)[nH]cnc3cc2[nH]1)[C@H]1CC[C@@H](c2ccnc3ccc(F)cc32)CC1 (some centres unmarked) [Example B151, 2-(1-((1s,4s)-4-(6-fluoroquinolin-4-yl)cyclohexyl)ethyl)-3,7-dihydro-8H-imidazo[4,5-g]quinazolin-8-one]
3.8 | C[C@@H](c1nc2cc(-c3ncccn3)ccc2[nH]1)[C@H]1CC[C@@H](c2ccnc3ccc(F)cc32)CC1 [Example B157, 6-fluoro-4-((1S,4s)-4-((R)-1-(5-(pyrimidin-2-yl)-1H-benzo[d]imidazol-2-yl)ethyl)cyclohexyl)quinoline]
67.7 | CC(c1nc2cc3c(cc2[nH]1)CCC(=O)N3)[C@H]1CC[C@@H](c2ccnc3ccc(F)cc32)CC1 (some centres unmarked) [Example B159, 2-(1-((1s,4s)-4-(6-fluoroquinolin-4-yl)cyclohexyl)ethyl)-1,5,7,8-tetrahydro-6H-imidazo[4,5-g]quinolin-6-one]
46 | CC(c1nc2cc(C(=O)N(C)C)ccc2[nH]1)[C@H]1CC[C@@H](c2ccnc3ccc(F)cc32)CC1 (some centres unmarked) [Example B160, 2-(1-((1s,4s)-4-(6-fluoroquinolin-4-yl)cyclohexyl)ethyl)-N,N-dimethyl-1H-benzo[d]imidazole-5-carboxamide]
567 | CC(c1nc2ccc(C(=O)O)cc2[nH]1)[C@H]1CC[C@@H](c2ccnc3ccc(F)cc32)CC1 (some centres unmarked) [Example B163, 2-(1-((1s,4s)-4-(6-fluoroquinolin-4-yl)cyclohexyl)ethyl)-1H-benzo[d]imidazole-6-carboxylic acid]
5.8 | CC(c1nc2ccc(C(=O)NC3CCC3)cc2[nH]1)[C@H]1CC[C@@H](c2ccnc3ccc(F)cc32)CC1 (some centres unmarked) [Example B164, N-cyclobutyl-2-(1-((1s,4s)-4-(6-fluoroquinolin-4-yl)cyclohexyl)ethyl)-1H-benzo[d]imidazole-6-carboxamide]
251 | CC(c1nc2cc3ccccc3cc2[nH]1)[C@H]1CC[C@@H](c2ccnc3ccc(F)cc32)CC1 (some centres unmarked) [Example B166, 2-(1-((1s,4s)-4-(6-fluoroquinolin-4-yl)cyclohexyl)ethyl)-1H-naphtho[2,3-d]imidazole]
18.8 | CC(c1nc2ccc(S(C)(=O)=O)cc2[nH]1)[C@H]1CC[C@@H](c2ccnc3ccc(F)cc32)CC1 (some centres unmarked) [Example B167, 6-fluoro-4-((1s,4s)-4-(1-(6-(methylsulfonyl)-1H-benzo[d]imidazol-2-yl)ethyl)cyclohexyl)quinoline]
19.6 | CC(c1nc2ccc(N)cc2[nH]1)[C@H]1CC[C@@H](c2ccnc3ccc(F)cc32)CC1 (some centres unmarked) [Example B169, 2-(1-((1s,4s)-4-(6-fluoroquinolin-4-yl)cyclohexyl)ethyl)-1H-benzo[d]imidazol-6-amine]
16.4 | CC(c1nc2c(F)c(F)cc(Cl)c2[nH]1)[C@H]1CC[C@@H](c2ccnc3ccc(F)cc32)CC1 (some centres unmarked) [Example B172, 4-((1s,4s)-4-(1-(7-chloro-4,5-difluoro-1H-benzo[d]imidazol-2-yl)ethyl)cyclohexyl)-6-fluoroquinoline]
12.7 | C[C@@H](c1nc2cc3ccccc3cc2[nH]1)[C@H]1CC[C@@H](c2ccnc3ccc(F)cc32)CC1 [Example B173, 2-((R)-1-((1s,4S)-4-(6-fluoroquinolin-4-yl)cyclohexyl)ethyl)-1H-naphtho[2,3-d]imidazole]
283 | C[C@@H](c1nc2ccc(S(C)(=O)=O)cc2[nH]1)[C@H]1CC[C@H](c2ccnc3ccc(F)cc32)CC1 [Example B178, 6-fluoro-4-((1R,4r)-4-((R)-1-(6-(methylsulfonyl)-1H-benzo[d]imidazol-2-yl)ethyl)cyclohexyl)quinoline]
36.2 | CC(=O)Nc1ccc2nc([C@H](C)[C@H]3CC[C@@H](c4ccnc5ccc(F)cc54)CC3)[nH]c2c1 [Example B179, N-(2-((R)-1-((1r,4R)-4-(6-fluoroquinolin-4-yl)cyclohexyl)ethyl)-1H-benzo[d]imidazol-6-yl)acetamide]
384 | C[C@@H](c1nc2ccc(NS(C)(=O)=O)cc2[nH]1)[C@H]1CC[C@@H](c2ccnc3ccc(F)cc32)CC1 [Example B180, N-(2-((R)-1-((1r,4R)-4-(6-fluoroquinolin-4-yl)cyclohexyl)ethyl)-1H-benzo[d]imidazol-6-yl)methanesulfonamide]
86.7 | CC(c1nc2cc(C(=O)Nc3ccccc3)ccc2[nH]1)[C@H]1CC[C@@H](c2ccnc3ccc(F)cc32)CC1 (some centres unmarked) [Example B182, 2-(1-((1s,4s)-4-(6-fluoroquinolin-4-yl)cyclohexyl)ethyl)-N-phenyl-1H-benzo[d]imidazole-5-carboxamide]
> 1000 | CC(c1nc2cc(C(=O)NCC3(O)CCC3)ccc2[nH]1)[C@H]1CC[C@@H](c2ccnc3ccc(F)cc32)CC1 (some centres unmarked) [Example B183, 2-(1-((1s,4s)-4-(6-fluoroquinolin-4-yl)cyclohexyl)ethyl)-N-((1-hydroxycyclobutyl)methyl)-1H-benzo[d]imidazole-5-carboxamide]
